Experimental data from publication PMC6695191 (PLoS Neglected Tropical Diseases, 2019).
Read-outs that look alike come from different tables or passages of the source.

Key:
[1] = tested on: L. donovani intracellular amastigotes; assay: L. donovani intracellular amastigote assay in PMA-differentiated THP-1 macrophages (Giemsa counting); type: cell-based, Leishmania donovani; details: for Selectivity Index: CC50 THP-1/IC50 intracellular amastigotes; for IC50: L. donovani in THP-1 macrophages, 120 h incubation, mean ± SD, n = 2 biological replicates
Experimental: (§1) Leishmania donovani axenic cultures (strain MHOM/ET/67/HU3) were maintained in M199 medium (pH 7.4) supplemented with 10% heat-inactivated fetal calf serum (FCS) and grown at 28°C [22]. Human leukemia cells (THP-1 cell line) were maintained in RPMI-1640 (FCS 10%) and grown at 37°C and 5% CO2. Stock solutions of compounds 1–4 were prepared in 100% DMSO at 10 mM and tested in 2-fold serial dilutions (10 concentrations) in 96-well flat-bottom microtiter plates.
In the intracellular amastigote assay, THP-1 cells were seeded at 2 × 10^4/well (RPMI-1640, 100 μL) with phorbol 12-myristate 13-acetate (PMA) at 20 ng/mL for differentiation into macrophages. After incubation for 72 hours (5% CO2, 37°C), medium was aspirated and late-stage promastigotes were added (2 × 10^5/well, 100 μL). After 24 hours of incubation, medium was aspirated to clear extracellular parasites, compounds were added in serial dilutions (100 μL) and the plates were incubated for 120 hours. All plates included negative controls (100% parasite growth) and miltefosine as a positive control. Following incubation, medium was removed and the cells were fixed in methanol and stained with Giemsa. The average number of intracellular amastigotes per THP-1 cell was determined using an inverted microscope and a cell counter. Growth inhibition was expressed as a percentage of the average number of amastigotes per macrophage in the negative control wells. IC50 values were determined as described above for the promastigote assay.

[2] = tested on: L. donovani promastigotes; assay: L. donovani promastigote assay (Alamar Blue); type: cell-based, Leishmania donovani; details: 72 h incubation at 28°C, mean ± SD, n = 2 biological replicates
Experimental: as §1
For the promastigote assay, L. donovani cells from axenic cultures in logarithmic growth were seeded at 1 x 10^5/well (M199, 80 μL) and compounds were added in serial dilutions (20 μL). All plates included negative controls (100% parasite growth) and miltefosine as a positive control. After 72 hours of incubation at 28°C, 10 μL of Alamar Blue (12.5 mg resazurin/100 mL distilled water) was added to each well and then the plates were incubated for 3 hours. This indicator of cell viability permeates into viable parasites, where it is reduced by NADPH and NADH enzymes to the highly fluorescent compound resorufin [24]. Following incubation, the plates were read with a microplate fluorometer under an excitation wave length of 536 nm and an emission wave length of 588 nm. […] If the test compound is active against L. donovani, the number of viable parasites is reduced, thus resulting a decrease in fluorescence. Growth inhibition was expressed as a percentage of the fluorescence of the negative control wells. IC50 values were determined using SigmaPlot. Dose-response curves were fitted using log (inhibitor concentration) vs. normalized response (between 0% and 100%) with variable slope, and IC50 values were automatically calculated.

[3] = Selectivity assay on THP-1 macrophages (Alamar Blue); type: cell-based; details: human
Experimental: Leishmania donovani axenic cultures (strain MHOM/ET/67/HU3) were maintained in M199 medium (pH 7.4) supplemented with 10% heat-inactivated fetal calf serum (FCS) and grown at 28°C [22].
After incubation for 72 hours (5% CO2, 37°C), medium was aspirated, compounds were added in serial dilutions (100 μL) and the plates were incubated for 120 h. All plates included negative controls and doxorubicin as a positive control. Following incubation, 10 μL of Alamar Blue was added to each well and then the plates were incubated for 3 hours. […] Growth inhibition was expressed as a percentage of the fluorescence of the negative control wells. IC50 values were determined as described above for the promastigote and amastigote assays.

[4] = tested on: Escovopsis sp.; assay: Antagonist bioassay of compounds and fractions against Escovopsis on ISP-2 agar; type: cell-based; details: 100 μg compound, 21 days
Experimental: (§2) Each bacterium-fungus and compound-fungal challenge was replicated two times on ISP-2 agar. Bacteria strains were initially screened against Escovopsis sp. ICBG1251. Bacteria were placed in the center of ISP-2 agar Petri dishes and grown alone during 7 days; fungal strains were then point-inoculated near the edge of the culture (microbial strains distant from each other around 3 cm). Two microliters of compounds (100 μg) were placed in the center of Petri dishes and fungal strains were then point-inoculated near the edge of the plate. The positive control used was the miconazole. Challenges were monitored each 7 days and inhibition zone was measure after 21 days. Four different fungal strains were used for testing the pure compounds: Escovopsis sp. ICBG711 (from Trachymyrmex colony), Escovopsis sp. ICBG740 (from Acromyrmex colony), Escovopsis sp. ICBG1251 (from Atta colony) and Trichoderma sp. ICBG1100 (from attine colony).

[5] = tested on: Trichoderma sp. ICBG1100; assay: Antagonist bioassay of compounds against Trichoderma on ISP-2 agar; type: cell-based; details: 100 μg compound, 21 days of growth at 28°C
Experimental: as §2

[6] = THP-1 macrophages, 120 h incubation, mean ± SD, n = 2 biological replicates, read-out: CC50 THP-1

SMILES | Selectivity Index [1] | IC50 ([1]; Leishmania donovani) [µM] | IC50 ([2]; Leishmania donovani) [µM] | CC50 at 120 h [3, 6] [µM] | other results
CO[C@@H]1C[C@@H](C[C@H]2CC[C@H](C)[C@H]([C@@H](C)C(=O)O)O2)O[C@]2(O[C@](C)([C@H]3CC[C@@](C)([C@@H]4O[C@@H]([C@H]5O[C@@](O)(CO)[C@H](C)C[C@@H]5C)C[C@@H]4C)O3)C[C@H]2C)[C@@H]1C [Compound 3, nigericin] | 88.91 | 0.129 ± 0.008 | 0.284 ± 0.072 | – | CC50 at 120 h [3]: 11.5 ± 0.68 µM
C/C=C(\C)[C@H](O)[C@H](C)/C=C(C)/C=C/C/C(C)=C/Cc1nc(OC)c(OC)c(O)c1C [Compound 2, piericidin-A1] | – | > 64 | 38.4 ± 4.63 | > 64 | –
CCCCCCCCCCCCCCCCOP(=O)([O-])OCC[N+](C)(C)C [Miltefosine, reference compound] | – | 5.8 ± 0.59 | 4.74 ± 0.25 | – | –
COc1cccc2c1C(=O)c1c(O)c3c(c(O)c1C2=O)C[C@@](O)(C(=O)CO)C[C@@H]3O[C@H]1C[C@H](N)[C@H](O)[C@H](C)O1 [Doxorubicin, reference compound] | – | – | – | – | CC50 at 120 h ([3]; THP-1 cells differentiated into macrophages with PMA, THP-1 macrophages, 120 h incubation, mean ± SD, n = 2 biological replicates, read-out: CC50 THP-1): 0.571 ± 0.068 µM
CC[C@@H]1C[C@H]2CC[C@H](O2)[C@H](C)C(=O)O[C@@H](C)C[C@@H]2CC[C@@H](O2)[C@@H](C)C(=O)O[C@H](CC)C[C@H]2CC[C@H](O2)[C@H](C)C(=O)O[C@@H](C)C[C@@H]2CC[C@@H](O2)[C@@H](C)C(=O)O1 [Compound 4, dinactin] | 656.11 | 0.018 ± 0.003 | 0.032 ± 0.005 | 11.8 ± 1.57 | –
C/C=C(\C)[C@H](O)[C@H](C)/C=C(C)/C=C/C/C(C)=C/Cc1nc(OC)cc(O)c1C [Compound 1, Mer-A2026B] | – | – | – | – | IC50 [1]: 49.9 ± 7.01 µM; IC50 [2]: 35.9 ± 1.83 µM; Antagonist activity against four different Escovopsis strains compared to compounds 2–4 [4]: higher antagonist activity; Activity against Trichoderma sp. [5]: active
